{"source": "patent US7674789B2", "about": "“Compounds” (Glaxo Group Limited, priority 2005, dated 2010)", "note": "Structures can show the parent of a compound that is named as a salt.", "data": [{"test_system": "influx of neutrophils to the lung in LPS-challenged rats", "test": "Rat LPS neutrophilia model", "assay_type": "in vivo", "details": "intratracheal compound 15 min-24 hours before LPS aerosol (100 ug/ml, 15 min), lavage 4 hours later, in at least one of the range of conditions tested", "experimental": "Rat LPS Neutrophilia Model\nThe effect of compounds on the influx of neutrophils to the lung in LPS-challenged rats is evaluated as follows. The test compound is suspended in one of the following solutions: 0.5% tween 80/PBS, 0.5% tween 80/saline, 10% EtOH/saline (with pH adjusted to 2.0, or 8.0 with HCl, or unadjusted), Saline @ pH 2.0, 6.5 or 8.0, 0.5% Tragacanth, 1% DMSO/20% Encapsin/Saline, or acidified 5% Tragacanth. The suspension process may be aided by the use of a glass homogenizer. For intratracheal administration, the animals are anesthetized with inhaled isoflurane and placed in a supine position, the trachea is intubated with a steel gavage needle (1.5 inch, 22 gauge, small ball) or a Penn-Century Microsprayer Aerosolizer (model IA-1B) and 200 ul of dosing solution is delivered. The animals are visually monitored during the recovery process, which typically occurs within two minutes.\nRats treated with compound or vehicle (15 min-24 hours pretreatment) are exposed to an LPS aerosol (100 ug/ml) for 15 min. Four hours later the rats are euthanized with pentobarbital (100 mg/kg, i.p.) and the airways are lavaged with 5 washes of 5 ml of phosphate buffered saline. The harvested cells are stained (Diffquick) and counted to determine total and differential cell data. In a typical study, macrophages represent 40-70% of the total cells, and polymorphonuclear cells 30-60% of the total cells. Inhibition of neutrophil levels relative to no compound controls is calculated based on the differential counts.\nThe assay has varying conditions, such as concentration, pretreat time, form of the compound (crystalline, amorphous, salts, micronised), and a wet or dry application of the compound. The data is obtained as % inhibition using a particular concentration and pretreat time.", "values": [{"smiles": "Cc1ccc(C(=O)NC(C)C)cc1-c1nc(NCCCN(C)C)nc2c1CNC(=O)N2c1c(F)cccc1F", "note": "[Example 40, 3-(8-(2,6-difluorophenyl)-2-{[3-(dimethylamino)propyl]amino}-7-oxo-5,6,7,8-tetrahydropyrimido[4,5-d]pyrimidin-4-yl)-4-methyl-N-(1-methylethyl)benzamide]", "inhibition of neutrophilia (neutrophil influx to the lung)": "statistically significant inhibition of neutrophilia"}, {"smiles": "Cc1ccc(C(=O)Nc2ccc(F)cc2)cc1-c1nc(N(C)CCCN(C)C)nc2c1CNC(=O)N2c1c(F)cccc1F", "note": "[Example 9, 3-{8-(2,6-difluorophenyl)-2-[[3-(dimethylamino)-propyl](methyl)amino]-7-oxo-5,6,7,8-tetrahydropyrimido[4,5-d]pyrimidin-4-yl}-N-(4-fluorophenyl)-4-methylbenzamide]", "inhibition of neutrophilia (neutrophil influx to the lung)": "statistically nonsignificant inhibition of neutrophilia"}, {"smiles": "Cc1ccc(C(=O)Nc2nccs2)cc1-c1nc(N(C)CCCN(C)C)nc2c1CNC(=O)N2c1c(F)cccc1F", "note": "[Example 124, 3-{8-(2,6-difluorophenyl)-2-[[3-(dimethylamino)propyl](methyl)amino]-7-oxo-5,6,7,8-tetrahydropyrimido[4,5-d]pyrimidin-4-yl}-4-methyl-N-1,3-thiazol-2-ylbenzamide]", "inhibition of neutrophilia (neutrophil influx to the lung)": "statistically nonsignificant inhibition of neutrophilia"}, {"smiles": "Cc1ccc(C(=O)Nc2ccc(C)c(-c3nc(N(C)C)nc4c3CNC(=O)N4c3c(F)cccc3F)c2)cc1F", "note": "[Example 28, N-{3-[8-(2,6-difluorophenyl)-2-(dimethylamino)-7-oxo-5,6,7,8-tetrahydropyrimido[4,5-d]pyrimidin-4-yl]-4-methylphenyl}-3-fluoro-4-methylbenzamide]", "inhibition of neutrophilia (neutrophil influx to the lung)": "statistically nonsignificant inhibition of neutrophilia"}, {"smiles": "CNC(=O)c1ccc(C)c(-c2nc(N3CCC(N4CCCCC4)CC3)nc3c2CNC(=O)N3c2c(F)cccc2F)c1", "note": "[Example 176, 3-[2-(1,4′-bipiperidin-1′-yl)-8-(2,6-difluorophenyl)-7-oxo-5,6,7,8-tetrahydropyrimido[4,5-d]pyrimidin-4-yl]-N,4-dimethylbenzamide]", "inhibition of neutrophilia (neutrophil influx to the lung)": "statistically nonsignificant inhibition of neutrophilia"}, {"smiles": "Cc1ccc(C(=O)Nc2ccc(C)c(-c3nc(NC4CC(C)(C)NC(C)(C)C4)nc4c3CNC(=O)N4c3c(F)cccc3F)c2)cc1F", "note": "[23(e), N-(3-{8-(2,6-difluorophenyl)-7-oxo-2-[(2,2,6,6-tetramethyl-4-piperidinyl)amino]-5,6,7,8-tetrahydropyrimido[4,5-d]pyrimidin-4-yl}-4-methylphenyl)-3-fluoro-4-methylbenzamide]", "inhibition of neutrophilia (neutrophil influx to the lung)": "statistically nonsignificant inhibition of neutrophilia"}, {"smiles": "Cc1ccc(C(=O)NC(C)C)cc1-c1nc(NC2CCN(Cc3ccccc3)CC2)nc2c1CNC(=O)N2c1c(F)cccc1F", "note": "[Example 200, 3-(8-(2,6-difluorophenyl)-7-oxo-2-{[1-(phenylmethyl)-4-piperidinyl]amino}-5,6,7,8-tetrahydropyrimido[4,5-d]pyrimidin-4-yl)-4-methyl-N-(1-methylethyl)benzamide]", "inhibition of neutrophilia (neutrophil influx to the lung)": "statistically significant inhibition of neutrophilia"}, {"smiles": "CCCNC(=O)c1ccc(C)c(-c2nc(NCCCN(CC)CC)nc3c2CNC(=O)N3c2c(F)cccc2F)c1", "note": "[29(c), 3-[2-{[3-(diethylamino)propyl]amino}-8-(2,6-difluorophenyl)-7-oxo-5,6,7,8-tetrahydropyrimido[4,5-d]pyrimidin-4-yl]-4-methyl-N-propylbenzamide]", "inhibition of neutrophilia (neutrophil influx to the lung)": "statistically significant inhibition of neutrophilia"}, {"smiles": "Cc1ccc(C(=O)NC(C)C)cc1-c1nc(NCCN(C)C)nc2c1CNC(=O)N2c1c(F)cccc1F", "note": "[Example 37, 3-(8-(2,6-difluorophenyl)-2-{[2-(dimethylamino)ethyl]amino}-7-oxo-5,6,7,8-tetrahydropyrimido[4,5-d]pyrimidin-4-yl)-4-methyl-N-(1-methylethyl)benzamide]", "inhibition of neutrophilia (neutrophil influx to the lung)": "statistically nonsignificant inhibition of neutrophilia"}, {"smiles": "Cc1ccc(C(=O)Nc2ccc(C)c(-c3nc(OC(C)C)nc4c3CNC(=O)N4c3c(F)cccc3F)c2)cc1F", "note": "[Example 26, N-(3-{8-(2,6-difluorophenyl)-2-[(1-methylethyl)oxy]-7-oxo-5,6,7,8-tetrahydropyrimido[4,5-d]pyrimidin-4-yl}-4-methylphenyl)-3-fluoro-4-methylbenzamide]", "inhibition of neutrophilia (neutrophil influx to the lung)": "inactive"}, {"smiles": "Cc1ccc(C(=O)NCc2ccccc2)cc1-c1nc(N(C)CCCN(C)C)nc2c1CNC(=O)N2c1c(F)cccc1F", "note": "[Example 17, 3-{8-(2,6-Difluorophenyl)-2-[[3-(dimethylamino)propyl](methyl)amino]-7-oxo-5,6,7,8-tetrahydropyrimido[4,5-d]pyrimidin-4-yl}-4-methyl-N-(phenylmethyl)benzamide]", "inhibition of neutrophilia (neutrophil influx to the lung)": "statistically nonsignificant inhibition of neutrophilia"}, {"smiles": "Cc1ccc(C(=O)Nc2ccc(F)cc2)cc1-c1nc(N2CCC(N3CCCC3)CC2)nc2c1CNC(=O)N2c1c(F)cccc1F", "note": "[86(c), 3-{8-(2,6-difluorophenyl)-7-oxo-2-[4-(1-pyrrolidinyl)-1-piperidinyl]-5,6,7,8-tetrahydropyrimido[4,5-d]pyrimidin-4-yl}-N-(4-fluorophenyl)-4-methylbenzamide]", "inhibition of neutrophilia (neutrophil influx to the lung)": "statistically nonsignificant inhibition of neutrophilia"}, {"smiles": "CCN(CC)CCCNc1nc(-c2cc(C(=O)NC)ccc2C)c2c(n1)N(c1c(F)cccc1F)C(=O)NC2", "note": "[Example 172, 3-[2-{[3-(diethylamino)propyl]amino}-8-(2,6-difluorophenyl)-7-oxo-5,6,7,8-tetrahydropyrimido[4,5-d]pyrimidin-4-yl]-N,4-dimethylbenzamide]", "inhibition of neutrophilia (neutrophil influx to the lung)": "statistically nonsignificant inhibition of neutrophilia"}, {"smiles": "Cc1ccc(C(=O)Nc2ccc(F)cc2)cc1-c1nc(N2CCC(N3CCCCC3)CC2)nc2c1CNC(=O)N2c1c(F)cccc1F", "note": "[87(b), 3-[2-(1,4′-bipiperidin-1′-yl)-8-(2,6-difluorophenyl)-7-oxo-5,6,7,8-tetrahydropyrimido[4,5-d]pyrimidin-4-yl]-N-(4-fluorophenyl)-4-methylbenzamide]", "inhibition of neutrophilia (neutrophil influx to the lung)": "statistically nonsignificant inhibition of neutrophilia"}, {"smiles": "CCc1ccc(C(=O)Nc2nccs2)cc1-c1nc(NCCN(C)C)nc2c1CNC(=O)N2c1c(F)cccc1F", "note": "[Example 144, 3-(8-(2,6-difluorophenyl)-2-{[2-(dimethylamino)ethyl]amino}-7-oxo-5,6,7,8-tetrahydropyrimido[4,5-d]pyrimidin-4-yl)-4-ethyl-N-1,3-thiazol-2-ylbenzamide trifluoroacetate]", "inhibition of neutrophilia (neutrophil influx to the lung)": "statistically significant inhibition of neutrophilia"}, {"smiles": "Cc1ccc(C(=O)Nc2ccc(F)c(F)c2)cc1-c1nc(NCCN(C)C)nc2c1CNC(=O)N2c1c(F)cccc1F", "note": "[Example 138, N-(3,4-difluorophenyl)-3-(8-(2,6-difluorophenyl)-2-{[2-(dimethylamino)-ethyl]amino}-7-oxo-5,6,7,8-tetrahydropyrimido[4,5-d]pyrimidin-4-yl)-4-methylbenzamide]", "inhibition of neutrophilia (neutrophil influx to the lung)": "statistically significant inhibition of neutrophilia"}, {"smiles": "CN(C)CCNc1nc(-c2cccc(C(=O)Nc3ccccc3)c2)c2c(n1)N(c1c(F)cccc1F)C(=O)NC2", "note": "[Example 91, 3-(8-(2,6-difluorophenyl)-2-{[2-(dimethylamino)ethyl]amino}-7-oxo-5,6,7,8-tetrahydropyrimido[4,5-d]pyrimidin-4-yl)-N-phenylbenzamide]", "inhibition of neutrophilia (neutrophil influx to the lung)": "statistically significant inhibition of neutrophilia"}, {"smiles": "Cc1ccc(C(=O)Nc2ccc(F)cc2)cc1-c1nc(NCCN(C)C)nc2c1CNC(=O)N2c1c(F)cccc1F", "note": "[8(c), 3-(8-(2,6-difluorophenyl)-2-{[2-(dimethylamino)ethyl]amino}-7-oxo-5,6,7,8-tetrahydropyrimido[4,5-d]pyrimidin-4-yl)-N-(4-fluorophenyl)-4-methylbenzamide]", "inhibition of neutrophilia (neutrophil influx to the lung)": "statistically significant inhibition of neutrophilia"}, {"smiles": "Cc1ccc(C(=O)NC(C)C)cc1-c1nc(N2CCC(N3CCCCC3)CC2)nc2c1CNC(=O)N2c1c(F)cccc1F", "note": "[Example 57, 3-[2-(1,4′-bipiperidin-1′-yl)-8-(2,6-difluorophenyl)-7-oxo-5,6,7,8-tetrahydropyrimido[4,5-d]pyrimidin-4-yl]-4-methyl-N-(1-methylethyl)benzamide]", "inhibition of neutrophilia (neutrophil influx to the lung)": "statistically nonsignificant inhibition of neutrophilia"}, {"smiles": "CNC(=O)c1ccc(C)c(-c2nc(N(C)CCCN(C)C)nc3c2CNC(=O)N3c2c(F)cccc2F)c1", "note": "[Example 174, 3-{8-(2,6-difluorophenyl)-2-[[3-(dimethylamino)propyl](methyl)amino]-7-oxo-5,6,7,8-tetrahydropyrimido[4,5-d]pyrimidin-4-yl}-N,4-dimethylbenzamide]", "inhibition of neutrophilia (neutrophil influx to the lung)": "inactive"}]}]}
